Laboratory results as given in patent US7041658B2, “Method of inhibiting hair growth” (Kao Corporation, priority 1998, dated 2006).

What was measured:
[1] = tested on: elastase; experiment: Elastase activity-inhibiting test in cultured human fibroblast; format: biochemical; settings: human fibroblast enzyme solution, substrate N-succinyl-(Ala)3-p-nitroanilide, 37° C. 1 hour
Text: (§1) Normal human fibroblasts commercially available from Dainippon Pharmaceutical Co., Ltd. were subcultured in a DMEM containing a 10% fetal bovine serum and used in this test. The cells separated from a Petri dish with a rubber policeman were suspended in physiological saline, collected by means of a low-speed centrifugal separator and washed 3 times with physiological saline. The thus-treated cells were suspended in a 0.1% Triton X-100/0.2 M Tris-HCl buffer (pH: 8.0) and ultrasonically disrupted to use as an enzyme solution.
125 mM N-Succinyl-(Ala)3-p-nitroanilide was used as a substrate for the measurement of enzyme activity, and each subject (1 μl; its concentration is shown in Table 1) was added to the enzyme solution (100 μl) to conduct a reaction at 37° C. for 1 hour. The reaction was stopped by adding acetic acid (5 μl). The amount of nitroaniline formed was determined by measuring an absorbance at 405 nm by means of a spectrophotometer.

[2] = target: T1, neutral endopeptidase (Homo sapiens, UniProt P08473); experiment: Neutral endopeptidase activity-inhibiting test in cultured human fibroblast; format: biochemical; settings: human fibroblast enzyme solution, substrate glutaryl-Ala-Ala-Phe-4-methoxy-2-naphthylamine, read-out: Percent inhibition of neutral endopeptidase activity (%)
T1 construct: suspended in a 0.1% Triton X-100/0.2 M Tris-HCl buffer (pH: 8.0) and ultrasonically disrupted to use as an enzyme solution; host or cells: normal human fibroblasts, Triton X-100 lysate
T1 sequence (P08473 whole entry): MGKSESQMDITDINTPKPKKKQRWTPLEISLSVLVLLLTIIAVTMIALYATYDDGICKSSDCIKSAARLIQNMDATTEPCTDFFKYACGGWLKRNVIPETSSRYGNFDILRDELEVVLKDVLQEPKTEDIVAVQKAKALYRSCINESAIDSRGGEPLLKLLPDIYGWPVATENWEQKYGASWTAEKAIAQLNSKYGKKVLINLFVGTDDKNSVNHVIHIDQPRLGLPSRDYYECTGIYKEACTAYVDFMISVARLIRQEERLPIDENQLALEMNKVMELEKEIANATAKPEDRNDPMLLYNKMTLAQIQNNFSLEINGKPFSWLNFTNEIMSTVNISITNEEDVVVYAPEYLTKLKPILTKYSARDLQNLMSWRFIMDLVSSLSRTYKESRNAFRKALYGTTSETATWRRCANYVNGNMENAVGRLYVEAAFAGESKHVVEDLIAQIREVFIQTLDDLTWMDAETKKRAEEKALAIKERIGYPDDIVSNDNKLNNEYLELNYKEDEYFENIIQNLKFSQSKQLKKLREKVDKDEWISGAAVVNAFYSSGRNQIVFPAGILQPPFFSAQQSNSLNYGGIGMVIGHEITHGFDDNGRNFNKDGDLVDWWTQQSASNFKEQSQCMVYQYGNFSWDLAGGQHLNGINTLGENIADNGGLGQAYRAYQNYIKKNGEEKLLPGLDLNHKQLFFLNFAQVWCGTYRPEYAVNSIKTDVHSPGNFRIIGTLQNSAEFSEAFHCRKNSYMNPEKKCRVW
Text: as §1, with “suspended in phosphate-buffered physiological saline,” for “suspended in physiological saline,”, “times with phosphate-buffered physiological saline.” for “times with physiological saline.”
The enzyme solution (2 μl), a solution (1 μl) of each subject compound and 20 mM glutaryl-Ala-Ala-Phe-4-methoxy-2-naphthylamine as a substrate for the measurement of enzyme activity were added to 100 μl of an MES buffer solution (100 mM, pH: 6.5), to which sodium chloride (300 mM) had been added, to conduct a reaction at 37° C. for 1 hour. The reaction was stopped by adding phosphoramidone so as to give a final concentration of 0.4 μM. Aminopeptidase M was added to the reaction mixture so as to give a final concentration of 20 mU, thereby conducting a reaction at 37° C. for 15 minutes. The amount of 4-methoxy-2-naphthylamine formed was determined by measuring a fluorescence intensity at an excitation wavelength of 340 nm and a fluorescence wavelength of 425 nm by means of a fluorescence spectrophotometer, thereby finding percent inhibition of neutral endopeptidase activity by the subject compound.

[3] = tested on: regeneration of mouse back hair; experiment: Test of inhibiting regeneration of mouse back hair; format: in vivo; settings: applied twice a day 100 μl/time to shaved back, C3H mice, vs solvent control
Method: Back hair of a group of 5 C3H mice aged 6 weeks was shaved over 2×4 cm^2 by means of an electric hair clipper and an electric shaver so as not to damage their skins. Each subject was applied to the shaved sites twice a day in an amount of 100 μl/time over 4 weeks. Only the solvent was applied to a control group. After 3 weeks, a photograph of each shaved site was taken at a fixed magnification for observing the state of regenerated hair to compare a regenerated hair area ratio (regenerated hair area/shaved area) of the test group with that of the control group.

Row | SMILES | Percent inhibition of elastase activity (%) ([1]; 0.1 mM) | Percent inhibition of elastase activity (%) ([1]; 1 mM) | inhibition at 10 µM [2] [%] | Percent inhibition of hair growth after 3 weeks from shaving (%) ([3]; 1 mM in 80% ethanol) | Percent inhibition of hair growth after 3 weeks from shaving (%) ([3]; 10 mM in 80% ethanol)
1 | CC(C)CC(NP(=O)(O)OC1OC(C)C(O)C(O)C1O)C(=O)NC(Cc1c[nH]c2ccccc12)C(=O)O (stereo not shown) [Compound 1] | 85.6 | – | 99 | 58.7 | –
2 | O=C(O)CCNC(=O)C(CS)Cc1ccccc1 (stereo not shown) [Compound 7] | 85.4 | – | 97.1 | 59.7 | –
3 | O=C(O)CNC(=O)C(CS)Cc1ccccc1 (stereo not shown) [Compound 8] | 89.6 | – | 96.3 | 71.6 | –
4 | CC(C)CC(NP(=O)(O)CCc1ccccc1)C(=O)NC(Cc1c[nH]c2ccccc12)C(=O)O (stereo not shown) [Compound 2] | 82.1 | – | 98.8 | 59.1 | –

Continued, in another order:

Row | Percent inhibition of elastase activity (%) ([1]; 0.1 mM) | Percent inhibition of elastase activity (%) ([1]; 1 mM) | SMILES | inhibition at 10 µM [2] [%] | Percent inhibition of hair growth after 3 weeks from shaving (%) ([3]; 1 mM in 80% ethanol) | Percent inhibition of hair growth after 3 weeks from shaving (%) ([3]; 10 mM in 80% ethanol)
5 | – | 68.4 | CC(C)CC(NP(=O)(O)CCc1ccccc1)C(=O)NCC(=O)O (stereo not shown) [Compound 4] | – | – | 60.5
6 | 90.2 | – | CC(C)CC(NC(=O)C(CC(C)C)NP(=O)(O)CCc1ccccc1)C(=O)O (stereo not shown) [Compound 3] | – | 64.8 | –
